For data set [1], the target named is T1, p38 MAPKα isoform (MAPK14) (Homo sapiens, UniProt Q16539).
T1 construct: purchased Invitrogen
As to the kind of experiment: Enzyme inhibition assay (FRET, Z-LYTE), p38 MAPKα via MAPKAP-K2 activation. Format: biochemical. The note with it: read-out: Enzyme Inhibition IC50 p38α. The essentials:
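Recombinant p38 MAPKα was preincubated with compound for 2 h at RT. Its activity was measured indirectly through activation/phosphorylation of downstream MAPKAP-K2, with a Z-LYTE FRET peptide read-out (coumarin/fluorescein ratio) after a 1 h development step. IC50 came from concentration-response curves of percent inhibition versus an uninhibited control.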

Data set [2] has as its target T2, p38 MAPKγ (MAPK12) (Homo sapiens, UniProt P53778).
T2 construct: purchased Invitrogen
T2 sequence (P53778 1-367): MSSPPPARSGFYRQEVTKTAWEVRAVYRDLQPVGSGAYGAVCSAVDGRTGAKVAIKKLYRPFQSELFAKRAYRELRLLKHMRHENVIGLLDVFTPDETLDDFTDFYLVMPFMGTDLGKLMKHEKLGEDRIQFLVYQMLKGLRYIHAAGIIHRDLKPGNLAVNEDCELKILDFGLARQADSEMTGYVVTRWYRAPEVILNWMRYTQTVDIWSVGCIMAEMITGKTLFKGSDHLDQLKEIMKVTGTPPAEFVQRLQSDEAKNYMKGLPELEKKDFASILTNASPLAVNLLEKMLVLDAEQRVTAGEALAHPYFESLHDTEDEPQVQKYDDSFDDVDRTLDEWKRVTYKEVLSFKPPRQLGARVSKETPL
As to the kind of experiment: Enzyme inhibition assay (FRET, Z-LYTE), p38 MAPKγ. Format: biochemical. The note with it: read-out: Enzyme Inhibition IC50 p38γ. The method in brief:
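Recombinant phosphorylated p38 MAPKγ preincubated 2 h at RT with compound in HEPES buffer, then 2 μM FRET peptide and 100 μM ATP added for 1 h; protease development 1 h. Coumarin/fluorescein emission ratio gave phosphorylation; IC50 from concentration-response versus uninhibited control.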

For data set [3], the system named is TNFα release in THP-1 cells. As to the kind of experiment: LPS-induced TNFα release in THP-1 cells. The note with it: Homo sapiens. Format: cell-based, human. The essentials: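 Human monocytic THP-1 cells stimulated with 3 μg/mL E. coli LPS for 4 hr; supernatant TNFα measured by sandwich ELISA. Inhibition at each concentration versus vehicle control, IC50 from concentration-response curve.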

Data set [4] deals with IL-8 release in d-U937 cells. As to the kind of experiment: LPS-induced IL-8 release in d-U937 cells. It counts as cell-based, human. The note with it: Homo sapiens, dU937. The method in brief:
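PMA-differentiated (100 ng/ml, 48–72 hr) U937 macrophage-type cells pre-incubated 2 hr with compound, then stimulated 4 hr with 0.1 μg/mL E. coli O111:B4 LPS; supernatant TNFα and IL-8 measured by sandwich ELISA. TNFα inhibition expressed relative to 10 μg/mL BIRB796, giving REC50; IL-8 inhibition versus vehicle, giving IC50.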

Data set [5] concerns ICAM-1 induction in BEAS2B cells. As to the kind of experiment: Poly I:C-induced ICAM-1 induction in BEAS2B cells. The note with it: Homo sapiens, BEAS-2B, read-out: PolyIC/ICAM1 IC50 BEAS2B. Format: cell-based, human. The method in brief:
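Human bronchial epithelial BEAS2B cells were pre-incubated with compound for 2 hr, then transfected with 1 μg/mL poly I:C. After 18 hr, surface ICAM-1 was measured by cell-based ELISA (OD450-655) and normalized to crystal violet cell counts (OD595). IC50 came from inhibition versus vehicle across the concentration-response curve.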

Data set [6] has as its system Differentiated U937 cells. As to the kind of experiment: Cell viability MTT assay. The note with it: negative = apparent increase in viability; for MTT Assay (Viability) 4 h d-U937, percentage loss of cell viability: 4 hr in 5% FCS; for MTT Assay (Viability) 24 h d-U937, percentage loss of cell viability: 24 h in 10% FCS. Format: cell-based, human. The essentials:
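Differentiated U937 cells pre-incubated with compound either 4 hr in 5% FCS or 24 h in 10% FCS, then 1 hr MTT. Formazan dissolved in DMSO, absorbance at 550 nm. Percentage viability loss relative to 0.5% DMSO vehicle; apparent increases appear as negative percentages.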

pIC50: −log10 of the molar value.

T1 sequence (Q16539 whole entry, canonical isoform): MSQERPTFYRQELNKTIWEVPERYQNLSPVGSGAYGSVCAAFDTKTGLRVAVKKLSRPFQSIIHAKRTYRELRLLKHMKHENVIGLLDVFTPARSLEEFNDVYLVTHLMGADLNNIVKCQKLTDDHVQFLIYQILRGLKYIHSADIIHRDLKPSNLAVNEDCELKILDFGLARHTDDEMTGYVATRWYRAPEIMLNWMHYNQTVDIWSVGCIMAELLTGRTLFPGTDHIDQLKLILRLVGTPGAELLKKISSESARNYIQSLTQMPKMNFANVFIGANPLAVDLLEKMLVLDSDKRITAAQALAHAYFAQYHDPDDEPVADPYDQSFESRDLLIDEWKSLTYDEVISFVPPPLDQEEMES

In the case of `CNC(=O)Nc1cc(Oc2ccc(NC(=O)Nc3cc(C(C)(C)C)nn3-c3ccc(OC)cc3)c(Cl)c2Cl)ccn1` [Example 9, N-Methyl-N′-4-(4-(3-(3-tert-butyl-1-p-anisyl-1H-pyrazol-5-yl)ureido)-2,3-dichlorophen-1-yloxy)pyridin-2-ylurea], the pIC50 in data set [1] was 7.72; in data set [2] it was 7.17; in data set [3], 9.00; in data set [4], 9.10; in data set [5] it was 9.52. In data set [6], the “MTT Assay (Viability) 4 h d-U937, percentage loss of cell viability” value is given as −26.8%. Moreover, the “MTT Assay (Viability) 24 h d-U937, percentage loss of cell viability” value in data set [6] is given as 65.3%.
Regarding `COc1ccc(-n2nc(C(C)(C)C)cc2NC(=O)Nc2ccc(Oc3ccnc(NC(=O)N4CCCC4)c3)c(Cl)c2Cl)cc1` [Example 76, N-(4-(4-(3-(3-(tert-butyl)-1-(4-methoxyphenyl)-1H-pyrazol-5-yl)ureido)-2,3-dichlorophenoxy)pyridin-2-yl)pyrrolidine-1-carboxamide], the pIC50 in data set [1] is 7.68; in data set [2], 6.87; in data set [3] it was 9.22; in data set [4], 9.10; in data set [5], 9.52. Also, the “MTT Assay (Viability) 4 h d-U937, percentage loss of cell viability” value in data set [6] is −25.5%. Also, the “MTT Assay (Viability) 24 h d-U937, percentage loss of cell viability” value in data set [6] was found to be 27.2%.

The values above are taken from patent US10000471B2, “Pyrazole P38 map kinase inhibitors” (Respivert Limited, priority 2010, dated 2018).
